# Patent publication US4174402A, “Method for the prophylaxis of SRS-A-induced symptoms” (priority 1978, dated 1979)
# Where “and” joins values, the source holds several entries; their conditions need not be identical. Identical values can stand only once. Entries after “also recorded” stand apart in the source; their conditions may differ.
# How the values were obtained:
# SRS-A [1] = test: Test Procedure 3: SRS-A-induced increase in resistance to pulmonary inflation in anesthetized cats; format: in vivo, cat
# Protocol: The trachea of each cat was cannulated, and the cats were artificially respired at 15 strokes/minute with a stroke volume of 22 ml/kg. A side-arm of the intratracheal cannula was connected to a Statham transducer, and the intratracheal pressure was recorded continuously on a polygraph. One femoral vein was cannulated in all cats receiving intravenous administration of drugs. In addition, most of the cats were cannulated through the femoral artery; this cannula was attached to another Statham transducer, and the blood pressure of these cats recorded. All cats received 1.0 mg/kg of propranolol and 0.2 mg/kg of thenyldiamine intravenously 3 minutes before iv injection of SRS-A. SRS-A was obtained from rat peritoneal cavities as described previously in Test Procedure 1. Each pool of rat ip fluid containing SRS-A was dose-ranged and a dose selected that was estimated to cause an average increase in intrapulmonary resistance to inflation in control cats by 4-6 mmHg. Test dose volumes ranged from 1.0 to 2.0 ml/kg, iv. […] Both test compounds and the sodium hydroxide vehicle were injected iv 5 minutes before the injections of SRS-A (2 minutes before the injection of propranolol and thenyldiamine).
# SRS-A [2] = test: Test Procedure 4: competitive antagonism to SRS-A in anesthetized guinea pigs; format: in vivo, guinea pig
# Description: The intratracheal pressure (ITP) of anesthetized, artificially respired guinea pigs (Konzett-Rossler preparation) was monitored and peak increases in ITP recorded. The basic methodology was the same as that described hereinabove for Test Procedure 2 except that the basic experimental unit was not two guinea pigs (medicated and control) but three guinea pigs examined in an uninterrupted sequence: a control guinea pig receiving the standard dose of SRS-A, a medicated guinea pig receiving the standard dose of SRS-A and a medicated guinea pig receiving a multiple dose of SRS-A. In this manner, the ratios of peak responses of the same sample of SRS-A could be determined for medicated/control guinea pigs (standard procedure), and for medicated guinea pigs receiving the standard dose of SRS-A. The multiple dose of SRS-A in these studies was either 3× or 6× the standard dose.
# histamine = test: Test Procedure 5: histamine-induced bronchoconstriction in anesthetized guinea pigs; format: in vivo, guinea pig
# Protocol: Guinea pigs weighing 350 to 400 g were anesthetized ip with 1.5 g/kg urethane and prepared for measurements of resistance to pulmonary inflation using a slightly modified Konzett-Rossler method (see Test Procedure 2). […] The experimental procedure was started after each guinea pig had attained its maximal, repeatable response to histamine. […] Artificial respiration was resumed 25 minutes later. Thirty minutes after the administration of one of the drugs, tne guinea pigs received two of three injections of histamine at 3-minute intervals. The average of these histamine responses (increases in resistance) was expressed as percent of the maximal histamine response obtained with the same guinea pig before the administration of the drug. In addition to sc administration, compound b was also studied following po administration. In these studies, the time interval between po medication and the secondary histamine challenges was increased to 45 minutes.
# acetylcholine = test: Test Procedure 7: acetylcholine-induced bronchoconstriction in anesthetized guinea pigs; format: in vivo, guinea pig; conditions: 100 mg/kg p.o.
# Protocol: Guinea pigs, weighing 250-350 g were anesthetized with 1.5 g/kg i.p. of urethane and prepared for measurements of resistance to pulmonary inflation using a slightly modified Konzett-Rossler preparation (see Test Procedure 2). Histamine phosphate (5 μg/kg as base) was injected four times at 5 minute intervals in order to ascertain that the maximum bronchoconstrictor responsiveness has been obtained. Acetylcholine was injected intravenously at […] 5 minutes following the last injection of histamine and the increase in intratracheal pressure was recorded. Compound b or aminophylline (100 mg/kg p.o.) or the control vehicle were administered to five guinea pigs each, 1 hour before the injection of acetylcholine (1/2 hour before the anesthesia).
# SRS-A [3] = test: Test Procedure 3: SRS-A-induced increase in resistance to pulmonary inflation in anesthetized cats; format: in vivo, cat; remark: listed apart in the source
# bradykinin = test: animal or person; conditions: Cavia porcellus, iv, read-out: lowest dose that resulted in significant inhibition
# Protocol: Antagonism of bradykinin-induced bronchoconstriction in guinea pigs was determined by measuring increases in resistance to artificial pulmonary inflation (Konzett-Rossler preparation). […] Due to large variations in bronchoconstricting responses among individual guinea pigs, each guinea pig serves as its own control and was challenged with bradykinin twice. The second response to bradykinin was expressed as percent of the first response to bradykinin. […] All guinea pigs having a first bradykinin response of less than 12 mm Hg were rejected as poor responders. […] In order to augment the bronchoconstrictor response, each guinea pig received 100 mcg propranolol/kg, iv, 5 minutes before the first injection of bradykinin (30 mcg/kg, iv). […] Five minutes after the injection of a test compound the guinea pigs received the second injection of bradykinin and the peak of the response determined. The effects of both test compounds were expressed as % inhibition of bradykinin-induced increase in bronchial resistance to forced inflation, as compared to the levels of bronchial resistance following iv administration of their respective solvent controls.
structure (smiles),measurement,setting,value
"COc1ccc2c(c1)c1c(n2C(=O)c2ccccc2)CCC(C(=O)O)C1 (stereo not shown) [Compound b, 9-benzoyl-6-methoxy-1,2,3,4-tetrahydrocarbazole-3-carboxylic acid]",ED50,"SRS-A [1]; Felis catus, 5 min, intravenous",0.028 ± 0.024 mg/kg
same,"Max. Increase in Resistance to Pulm. Inflation, mm Hg ± S.E.",SRS-A [1]; intravenous 0.01 mg/kg,4.1 ± 1.3 mm Hg
same,% Inhibition,SRS-A [1]; intravenous 0.1 mg/kg,73%
same,"Max. Increase in Resistance to Pulm. Inflation, mm Hg ± S.E.",SRS-A [1]; intravenous 1.0 mg/kg,0.1 ± 0.1 mm Hg
same,inhibition of SRS-A-induced increase in resistance to inflation,SRS-A [1]; intravenous 1.0 mg/kg,complete inhibition
same,"Ratio of peak responses, medicated (high dose SRS-A)/controls","SRS-A [2]; 2.0 mg/kg iv, SRS-A lot B, 6x dose 12 ml/kg",2.14 ± .68 and 2.14
same,"Ratio of peak responses, medicated (low dose SRS-A)/controls","SRS-A [2]; 2.0 mg/kg iv, SRS-A lot B, standard dose 2 ml/kg",0.14 ± 0.7 and 0.14
same,% Inhibition,"SRS-A [2]; 2.0 mg/kg iv, six-fold SRS-A dose",0%
same,% Inhibition,"SRS-A [2]; 2.0 mg/kg iv, standard dose of SRS-A",86%
same,"Ratio of peak responses, medicated (high dose SRS-A)/controls","SRS-A [2]; 3.3 mg/kg iv, SRS-A lot A, 3x dose 12 ml/kg",0.76 ± .20 and 0.76
same,"Ratio of peak responses, medicated (low dose SRS-A)/controls","SRS-A [2]; 3.3 mg/kg iv, SRS-A lot A, standard dose 4 ml/kg",0.12 ± 0.3 and 0.12
same,% Inhibition,"SRS-A [2]; 3.3 mg/kg iv, standard dose of SRS-A",88%
same,% Inhibition,"SRS-A [2]; 3.3 mg/kg iv, three-fold SRS-A dose",24%
same,mode of antagonism to SRS-A,SRS-A [2]; iv,competitive antagonist to SRS-A
same,effect against histamine-induced bronchoconstriction (activity profile),histamine; guinea pigs,ineffectiveness
same,inhibition of histamine-induced bronchoconstriction,histamine; oral 100 mg/kg,no significant inhibition
same,% Inhibition,histamine; po 100 mg/kg,16%
same,Histamine-Response in % of Premed. Histamine Response,histamine; po 100 mg/kg,84 ± 26%
same,% Inhibition,histamine; sc 100 mg/kg,8%
same,Histamine-Response in % of Premed. Histamine Response,histamine; sc 100 mg/kg,92 ± 2%
same,inhibition of histamine-induced bronchoconstriction,histamine; sc 100 mg/kg,no significant inhibition
same,% Inhibition,acetylcholine,9%
same,"Peak Increase in Intracheal Pressure, mm Hg",acetylcholine,21 ± 4 mm Hg
same,effect against acetylcholine-induced bronchoconstriction,acetylcholine,inactive; also recorded: ineffectiveness
same,% Inhibition,SRS-A [3]; intravenous 0.01 mg/kg,30%
same,"Max. Increase in Resistance to Pulm. Inflation, mm Hg ± S.E.",SRS-A [3]; intravenous 0.1 mg/kg,1.6 ± 0.5 mm Hg
same,% Inhibition,SRS-A [3]; intravenous 1.0 mg/kg,98%
same,increase in resistance in one of seven cats,SRS-A [3]; intravenous 1.0 mg/kg,0.5 mm Hg
same,% Inhibition,SRS-A [3]; oral 0.33 mg/kg,25%
same,"Max. Increase in Resistance to Pulm. Inflation, mm Hg ± S.E.",SRS-A [3]; oral 0.33 mg/kg,3.1 ± 0.3 mm Hg
same,% Inhibition,SRS-A [3]; oral 1.0 mg/kg,49%
same,"Max. Increase in Resistance to Pulm. Inflation, mm Hg ± S.E.",SRS-A [3]; oral 1.0 mg/kg,2.0 ± 0.8 mm Hg
same,% Inhibition,SRS-A [3]; oral 3.3 mg/kg,85%
same,"Max. Increase in Resistance to Pulm. Inflation, mm Hg ± S.E.",SRS-A [3]; oral 3.3 mg/kg,0.6 ± 0.5 mm Hg
same,% Inhibition,SRS-A [3]; oral 10.0 mg/kg,98%
same,"Max. Increase in Resistance to Pulm. Inflation, mm Hg ± S.E.",SRS-A [3]; oral 10.0 mg/kg,0.1 ± 0.1 mm Hg
same,minimal effective dose,bradykinin,1 mg/kg
